In US20250177366A1, “COMPOSITIONS AND METHODS FOR ALLEVIATING PAIN AND REDUCING ADVERSIVENESS OF STIMULI” (UNIVERSITY OF WASHINGTON, priority 2021, published 2025):

Key:
larval zebrafish [1] = assay: Sensitized thermal aversion assay (28.5° vs 31.5° C. after AITC), small molecule screen; type: in vivo, Zebrafish (Danio rerio); settings: 10 min incubation then AITC 0.5 μM
Description: The Novel Analgesic AS1 reverses the valence of normally aversive stimuli. In a previously published study, a novel high throughput temperature discrimination assay utilizing larval zebrafish that modeled acute and sensitized temperature aversion were developed (FIG. 1A) (Curtright et al., PLoS One. 2015; 10:1-18). […] Also shown is that multiple small molecule analgesics could reverse acute and/or sensitized thermal aversion while non-analgesics could not.
Using the sensitized thermal aversion assay, a small molecule library was screened in order to identify targets in pain transduction pathways and potential entry points for therapeutic intervention. The compounds were selected from Chembridge's CNS-Set (https://www.chembridge.com), which consists of small molecules selected for blood brain barrier penetration and oral bioavailability. Compounds were selected from across the library to maximize the diversity of molecules screened. Small molecules were initially pooled (8 per pool) to maximize screening efficiency. […]
Thermal preference assay. […] Locomotor behavior was recorded using a Canon high-definition video camcorder suspended at a fixed position above the choice testing plate. […]

larval zebrafish [2] = assay: Light/dark preference (phototaxis) assay; type: in vivo, Zebrafish (Danio rerio); settings: for light/dark preference: last two minutes of each trial, last four trials
Method: Following this, whether the effects of AS1 were restricted to somatosensation or were generalizable to other aversive stimuli were tested. Thus, the effects of AS1 on light/dark preference were tested. Zebrafish larvae prefer white light environments to dark environments and this preference is inhibited by anxiolytics, analagous to studies in rodents (Lau et al., Proc. Natl. Acad. Sci. U.S.A 2011; 108:2581-2586; Burgess et al., Curr. Biol. 2010; 20:381-386). To measure light/dark preference, larval zebrafish were placed in a square arena and given the choice between a bright white light and total darkness, and the number of larvae on each side was quantified at 30 second intervals. Five 4-minute trials were performed, where the light and dark sides of the arena were reversed between trials. […] Given the precise control over stimulus luminosity in this assay, the effects of altering the intensity of the dark stimulus were explored next. In this gradient version of the phototaxis assay, larval zebrafish were given the choice between a bright white environment and one of six potential shades of darkness, ranging from light gray to solid black. […] This implies that the valence of non-painful noxious stimuli is precisely encoded in an intensity-dependent manner, and that AS1 exerts its effects in proportion to the intensity of the stimulus.
Light/dark preference (phototaxis) assay. In the light/dark preference assay, randomly-selected 6 dpf larval zebrafish (N of 30 to 40) were carefully pipetted onto a 10 cm square petri dish using a 10 mL pipette pump equipped with a glass wide-bored Pasteur pipet. As much E2 media as possible was carefully removed using the same pipet. For single incubation experiments, 30 mL of 1× solutions of the control or test chemical was added to each petri dish, and fish were incubated for 10 minutes at 28.5° C. For double incubation experiments, 15 mL of 1× solutions containing control (DMSO) or test chemicals was added to the larvae-containing petri dish. Following a ten-minute incubation period, 15 mL of the second incubation solution (1× control or test chemical +/−2× AS1) was added to the petri dish, and the fish were incubated for a second ten minute block. The final concentration of DMSO in all solutions was 1%. In all double-incubation experiments, the final concentration of AS1 was 2.5 μM. These petri dishes were then positioned over a horizontally-oriented computer monitor displaying a PowerPoint presentation. For standard light/dark preference assays, a blank white slide was initially presented for one minute, after which the presentation would automatically advance to a slide in which half of the display was black. The petri dish with larvae was positioned such that exactly half was directly over the dark side, and the other half was directly over the light side. After four minutes, the presentation automatically advanced to a slide in which the black and white halves switched places. A total of five four-minute trials, with the dark/light halves automatically switching position between trials, were recorded. For the gradient phototaxis assay, experiments were performed identically, except that the “dark” half of the powerpoint presentation was one of six shades of gray.
In all experiments, an initial still frame of video was taken during the minute where the blank slide was presented in order to quantify the total number of fish in the experiment. Following this, still frames were taken at 30 second intervals for each trial ([…]), and the number of fish present in the light half of the arena were counted. To generate the graphs that looked at swimming patterns over time in a trial (e.g., FIG. 3D), the average percentage of fish in the light at each time point (T=0, T=30, etc.) was calculated across all five trials. […]

CC(C)c1ccc(C(=O)Nc2ccncc2)cc1 [AS1, 4-propan-2-yl-N-pyridin-4-ylbenzamide]
sensitized thermal aversion / place preference (larval zebrafish [1]): induced place preference for the noxious zone | light/dark preference (larval zebrafish [2]; 1 μM AS1): significantly prefer the light side of the arena | gradient phototaxis: choice between bright white (shade 1) and darker shades 2-7 (larval zebrafish [2]; 2.5 μM AS1): increasingly prefer the contrasting dark shade | light/dark preference (larval zebrafish [2]; 2.5 μM AS1): significantly prefer the dark | light/dark preference, dose dependence (larval zebrafish [2]; AS1-treated vs vehicle-treated larvae): reversed light/dark preference in a dose-dependent manner
